# Patent US20170182033A1, “PHARMACEUTICAL COMPOSITIONS FOR EXTENDED RELEASE OF OXYCODONE AND ACETAMINOPHEN RESULTING IN A QUICK ONSET AND PROLONGED PERIOD OF ANALGESIA” (priority 2011, published 2017)
# Experiments:
# [1] = Ethanol release testing at 100 rpm paddle speed (Example 29); format: physicochemical; conditions: release from the formulation
# hepatic GSH = conditions: mice; 100 mg/kg to 600 mg/kg; cited from earlier work
smiles,measurement,setting,value
CC(=O)Nc1ccc(O)cc1 [acetaminophen],"Percent Release, Mean","[1]; 0% Ethanol, 15 Min",52.2%
same,"Percent Release, Mean","[1]; 0% Ethanol, 30 Min",54.6%
same,"Percent Release, Mean","[1]; 0% Ethanol, 45 Min",56.8%
same,"Percent Release, Mean","[1]; 0% Ethanol, 60 Min",58.8%
same,"Percent Release, Mean","[1]; 0% Ethanol, 75 Min",60.8%
same,"Percent Release, Mean","[1]; 0% Ethanol, 90 Min",62.6%
same,"Percent Release, Mean","[1]; 0% Ethanol, 105 Min",64.3%
same,"Percent Release, Mean","[1]; 0% Ethanol, 120 Min",66.0%
same,"Percent Release, Mean","[1]; 0% Ethanol, 240 Min",78.6%
same,"Percent Release, Mean","[1]; 0% Ethanol, 480 Min",95.5%
same,"Percent Release, Mean","[1]; 5% Ethanol, 15 Min",52.6%
same,"Percent Release, Mean","[1]; 5% Ethanol, 30 Min",55.1%
same,"Percent Release, Mean","[1]; 5% Ethanol, 45 Min",57.1%
same,"Percent Release, Mean","[1]; 5% Ethanol, 60 Min",58.9%
same,"Percent Release, Mean","[1]; 5% Ethanol, 75 Min",60.7%
same,"Percent Release, Mean","[1]; 5% Ethanol, 90 Min",62.3%
same,"Percent Release, Mean","[1]; 5% Ethanol, 105 Min",63.9%
same,"Percent Release, Mean","[1]; 5% Ethanol, 120 Min",65.5%
same,"Percent Release, Mean","[1]; 5% Ethanol, 240 Min",77.2%
same,"Percent Release, Mean","[1]; 5% Ethanol, 480 Min",94.4%
same,"Percent Release, Mean","[1]; 10% Ethanol, 15 Min",51.7%
same,"Percent Release, Mean","[1]; 10% Ethanol, 30 Min",54.1%
same,"Percent Release, Mean","[1]; 10% Ethanol, 45 Min",56.0%
same,"Percent Release, Mean","[1]; 10% Ethanol, 60 Min",57.8%
same,"Percent Release, Mean","[1]; 10% Ethanol, 75 Min",59.5%
same,"Percent Release, Mean","[1]; 10% Ethanol, 90 Min",61.1%
same,"Percent Release, Mean","[1]; 10% Ethanol, 105 Min",62.6%
same,"Percent Release, Mean","[1]; 10% Ethanol, 120 Min",64.1%
same,"Percent Release, Mean","[1]; 10% Ethanol, 240 Min",75.5%
same,"Percent Release, Mean","[1]; 10% Ethanol, 480 Min",93.5%
same,"Percent Release, Mean","[1]; 20% Ethanol, 15 Min",50.2%
same,"Percent Release, Mean","[1]; 20% Ethanol, 30 Min",53.4%
same,"Percent Release, Mean","[1]; 20% Ethanol, 45 Min",55.5%
same,"Percent Release, Mean","[1]; 20% Ethanol, 60 Min",57.3%
same,"Percent Release, Mean","[1]; 20% Ethanol, 75 Min",59.0%
same,"Percent Release, Mean","[1]; 20% Ethanol, 90 Min",60.5%
same,"Percent Release, Mean","[1]; 20% Ethanol, 105 Min",61.9%
same,"Percent Release, Mean","[1]; 20% Ethanol, 120 Min",63.3%
same,"Percent Release, Mean","[1]; 20% Ethanol, 240 Min",76.0%
same,"Percent Release, Mean","[1]; 20% Ethanol, 480 Min",91.9%
same,"Percent Release, Mean","[1]; 40% Ethanol, 15 Min",16.7%
same,"Percent Release, Mean","[1]; 40% Ethanol, 30 Min",30.4%
same,"Percent Release, Mean","[1]; 40% Ethanol, 45 Min",38.5%
same,"Percent Release, Mean","[1]; 40% Ethanol, 60 Min",43.1%
same,"Percent Release, Mean","[1]; 40% Ethanol, 75 Min",46.1%
same,"Percent Release, Mean","[1]; 40% Ethanol, 90 Min",48.3%
same,"Percent Release, Mean","[1]; 40% Ethanol, 105 Min",49.8%
same,"Percent Release, Mean","[1]; 40% Ethanol, 120 Min",51.1%
same,"Percent Release, Mean","[1]; 40% Ethanol, 240 Min",60.8%
same,"Percent Release, Mean","[1]; 40% Ethanol, 480 Min",77.2%
same,Onset of circulating hepatic GSH changes after administration,hepatic GSH,≤ 15 min
